Data as given in patent US6423702B1, “PROCESS FOR THE HYDROXYLATION OF AN ACYCLIC OR CYCLIC METHYLENE RADICAL IN THE ALLYLIC POSITION, PHARMACEUTICAL COMPOSITION CONTAINING HYDROXYCHOLESTEROL DERIVATIVES AND UTILIZATION OF SUCH COMPOSITIONS FOR THE PREPARATION OF DRUGS” (priority 1991, dated 2002).

Assays:
[1] = test system: tumors induced by 7,12-di-methylbenz(α)anthracene; details: female Sprague-Dawley rats; cited from earlier work
[2] = test system: reactional gliosis (reactive astrocytes); experiment: Reactional gliosis after electrolytic lesion of the striatum (brain), GFAP detection; assay type: in vivo, rat; details: rats aged 6 days; 2 μl liposomes with 20 μg PC and 2 μg sterol or oxysterol injected into the site of lesion
Method: (§1) PC and steroidal derivatives are dissolved in CHCL3/methanol [sic] (2/1 v/v), the solvent evaporated and 1 ml of KCL [sic] (0.15 M) added. The suspension is subjected to ultrasound in an ice bath (5×1 min with an interval of 30 sec, amplitude 18 μm), centrifuged 13,000 g for 20 min, the supernatant withdrawn and concentrated 5 times under nitrogen. BRAIN
Rats aged 6 days are anesthetized with an intraperitoneal injection of imalgene 500 (2 mg/10 g) and valium (0.05 ml/10 g) and then placed in a stereotaxic apparatus in order to be subjected to an electrolytic lesion at the level of the striatum. For this, a dental probe, insulated except at the point, is moved down to the level of the striatum according to the stereotaxic coordinates with respect to the lambda. At this level, a current of 2 mA is applied for 10 secs;
2 μl of a suspension of liposomes containing 20 μg of PC and 2 μg of various sterols or oxysterols are injected into the site of lesion.
(§2) GFAP, specific structural labeler of astrocytes, is detected on paraffin sections by the antibody/antiantibody system to GFAP coupled to the peroxidase.

[3] = test system: secondary reactional gliosis (reactive astrocytes); experiment: Reactional gliosis after complete section of the spinal cord at T8, GFAP detection; assay type: in vivo, rat; details: rats 250 g; 5 μl liposomes with 500 μg PC and 50 μg ester injected 0.5 mm downstream of the section
Method: as §1
After complete section of the spinal cord at the T8 level in rats weighing 250 g (Sprague, Dawley, EFFA, Credo), 5 μl of a suspension of liposomes containing 500 μg of PC and 50 μg of esters of 7β-OH-CH (C18:0 or C18:1) are injected at 0.5 mm downstream of the section.
as §2

[4] = test system: subcutaneous glioblastomas (C6 cells); experiment: Subcutaneous tumors induced by inoculating with C6 cells, intratumoral liposome treatment; assay type: in vivo, rat; details: 50 μl liposomes with 1 mg PC and 100 μg steroid injected into the tumors; photographed 48 hours afterwards
Method: The C6 cells (passage 55-57) are injected subcutaneously at the shoulders at a charge of 10^6 cells/200 μl of […] in rats (26 g) aged 3 weeks according to Ledig et al., (Revue de l'Alcoolisme, 1986, 31, 1-11); when the tumors develop (2 weeks after inoculating with the C6 cells), 50 μl of a suspension of liposomes containing 1 mg of PC and 100 μg of cholesteryl oleate or 7β-OH-cholesteryl oleate are injected into the tumors. The animals are photographed 48 hours afterwards.

[5] = test system: glioblastomas in the rat cortex (C6 cells); experiment: Glioblastomas induced in the brain with C6 cells, liposome treatment at the tumor site; assay type: in vivo
Method: The “in vivo” model proposed by Galli et al., (J. Neurooncology, 7, 299-304, 1989) has been adopted with a few modifications in the number of C6-type cells injected and in the age of the rats. Rats (Wistar male) aged 6 days are anesthetized and placed in a stereotaxic apparatus, the skin of the cranium is opened and the skull pierced at appropriate coordinates (4.5 AP, 3.0 ML, 2.0 mm DV with respect to the lambda, set 0) using a dental drill; 200×10^3 C6 in […] of PBS are then injected over 4 minutes and then the skin sutured. 72 hours later, the rats are operated on again and treated with liposomes containing the 7β-hydroxycholesteryl 3-esters. […]
The rats are sacrificed 8 days after the treatment by […] injection of pentobarbital, perfused with formalin (4%) and the withdrawn brain is post-fixed in formalin (4%) and then in isobutanol and included in paraffin. Sections with a thickness of 10 μm are prepared using a section cutter and, after removing paraffin in toluene, the glioblastomas are detected by staining with Cresyl Violet (0.1% in 0.1 M […] and 0.1 M sodium acetate) and subjected to an image analyzer (IBAS, KONTRON, SAMBA ALCATEL). […]
Quantitative analysis of the lesions thus observed requires the acquisition of images with sequences of echoes of spin having several echoes and recovery times. […]

[6] = test system: lymphoma (mouse RDM4 and YAC-1); details: mouse RDM4 and YAC-1 lymphoma; cited from earlier work
[7] = test system: HTC cells (rat liver tumoral cells); details: cited from earlier work
[8] = test system: rat fibroblasts originating from the heart; details: cited from earlier work
[9] = test system: rat liver epithelial cells; details: cited from earlier work
[10] = test system: cultured heart cells from newborn rats; details: cited from earlier work
[11] = test system: hepatocytes from newborn rats; details: cited from earlier work
transformed astrocytes = details: cited from earlier work
[12] = test system: ascitic tumors, Krebs-II transplantable carcinoma; details: injected intraperitoneally into mice carrying ascitic tumors; cited from earlier work

## CC(C)CC[C@@H](O)[C@@H](C)[C@H]1CC[C@H]2[C@@H]3[C@@H](O)C=C4C[C@@H](O)CC[C@]4(C)[C@H]3CC[C@]12C [(22 R)-cholest-5-ene-3β,7β22-triol]
[1]
  development of tumors: effectively reduced

## CCCCCCCC/C=C\CCCCCCCC(=O)O[C@H]1CC[C@@]2(C)C(=C[C@H](O)[C@H]3[C@@H]4CC[C@H]([C@H](C)CCCC(C)C)[C@@]4(C)CC[C@@H]32)C1 [7β-OH-CH (C18:1), 7β-hydroxycholesteryl 3-oleate]
[2]
  reactional gliosis in the CNS: high attenuation
[3]
  secondary reactional gliosis at the spinal cord lesion site: reduces
[4]
  effect on the subcutaneous tumor: significant regression
[5]; 40 μg in PC/GM1 liposomes injected 72 hours after C6 inoculation, sacrifice 8 days after treatment
  size of the tumors (Cresyl Violet staining): significant reduction
[5]; same glioblastoma induced in the cortex of a rat, during treatment
  monitoring of the tumor over time by NMR imagery: regression

## CC(C)CCC[C@@H](C)[C@H]1CC[C@H]2[C@@H]3[C@@H](O)C=C4C[C@@H](O)CC[C@]4(C)[C@H]3CC[C@]12C [7β-hydroxycholesterol]
[6]
  cytotoxic activity against cultured cells: cytotoxic activity
[7]
  cytotoxic activity against cultured cells: cytotoxic activity
[8]
  cytotoxic activity against cultured cells: cytotoxic activity
[9]
  cytotoxic activity against cultured cells: cytotoxic activity
[10]
  effect on cells with weaker potential for division: not detrimentally affected
[11]
  effect on cells with weaker potential for division: not detrimentally affected
Transformed astrocytes
  metabolism to esters of fatty acids: metabolized

## CCCCCCCC/C=C\CCCCCCCC(=O)O[C@H]1CC[C@@]2(C)C(=CC[C@H]3[C@@H]4CC[C@H]([C@H](C)CCCC(C)C)[C@@]4(C)CC[C@@H]32)C1 [CH (C18:1), cholesteryl oleate]
[4]
  effect on the subcutaneous tumor: practically no effect

## CCCCCCCCCCCCCCCC(=O)O[C@H]1CC[C@@]2(C)C(=CC[C@H]3[C@@H]4CC[C@H]([C@H](C)CCCC(C)C)[C@@]4(C)CC[C@@H]32)C1 [CH (C16:0), cholesteryl palmitate]
[2]
  reactional gliosis in the CNS: ineffective

## CC(C)CCC[C@@H](C)[C@H]1CC[C@H]2[C@@H]3CC=C4C[C@@H](O)CC[C@]4(C)[C@H]3CC[C@]12C [CH, cholesterol]
[2]
  reactional gliosis in the CNS: ineffective

## CC(C)CCC[C@@H](C)[C@H]1CC[C@H]2[C@@H]3[C@@H](OC(=O)CCC(=O)O)C=C4C[C@@H](OC(=O)CCC(=O)O)CC[C@]4(C)[C@H]3CC[C@]12C [7β-hydroxycholesterol 3,7-bis(hemisuccinate)]
[12]
  antitumoral activity: antitumoral activity
